From PubChem BioAssay (NCI) come the findings set out here.

Some test systems named below: SK-MEL-28 melanoma; TK-10 renal; OVCAR-3 ovarian; UACC-62 melanoma; HCT-116 colon; A498 renal; M14 melanoma; SF-268 CNS.
What all share (assay): inhibition of tumour cell growth, NCI panel, 48 h

Structures are written as SMILES.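 Dose response: 5 concentrations. Exposure: 48 h. Format: 96-well plates. Endpoint: linear interpolation; highest concentration if not reached. TGI: total growth inhibition.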

Regarding `CCOC(=O)c1cn2c(n1)sc1cc(Cl)ccc12`, the TGI was above 100 µM with SK-MEL-28 melanoma; above 100 µM in the assay with TK-10 renal; 64.5 µM in the assay on OVCAR-3 ovarian; above 100 µM in the assay on UACC-62 melanoma; 13.6 µM in the assay with HCT-116 colon; above 100 µM in the assay on A498 renal. Moreover, the TGI with M14 melanoma and in the assay with SF-268 CNS was above 100 µM in each case.

With `C/C(=N/NC(N)=S)c1ccc[nH]1`, the TGI with SK-MEL-28 melanoma, in the assay on TK-10 renal, in the assay with OVCAR-3 ovarian, in the assay with UACC-62 melanoma, in the assay with HCT-116 colon and in the assay on A498 renal was above 100 µM throughout. The TGI in the assay on M14 melanoma and in the assay with SF-268 CNS was above 100 µM in each case.

Take `O=[N+]([O-])c1ccc(S(=O)(=O)n2c3ccc(Br)cc3c3nc4ccccc4nc32)cc1`: the TGI with SK-MEL-28 melanoma, with TK-10 renal, in the assay with OVCAR-3 ovarian, with UACC-62 melanoma, with HCT-116 colon and in the assay with A498 renal was above 100 µM each time. Besides, the TGI in the assay on M14 melanoma and in the assay with SF-268 CNS was above 100 µM in each case.

Consider `CN(C)CCCN=c1c2ccccc2n(O)c2ccccc12`, for which the TGI in the assay with SK-MEL-28 melanoma, in the assay on TK-10 renal, with OVCAR-3 ovarian, with UACC-62 melanoma, in the assay with HCT-116 colon and with A498 renal was above 100 µM throughout. Besides, the TGI in the assay on M14 melanoma and with SF-268 CNS was above 100 µM each time.

For the compound `COc1cc(OC)c2c(C)cc(=O)oc2c1`, the TGI with SK-MEL-28 melanoma was above 100 µM; in the assay on TK-10 renal, above 100 µM; in the assay on OVCAR-3 ovarian it was above 100 µM; with UACC-62 melanoma it was above 100 µM; in the assay on HCT-116 colon, above 100 µM; in the assay with A498 renal, 76.5 µM. The TGI with M14 melanoma and in the assay on SF-268 CNS was above 100 µM in each case.

`Cc1ccc([N+](=O)[O-])c2c(NCCC[N+](C)(C)[O-])c3ccccc3nc12`: the TGI with SK-MEL-28 melanoma was 17 µM; with TK-10 renal, 80.5 µM; with OVCAR-3 ovarian, above 41.3 µM; in the assay on UACC-62 melanoma, 3.4 µM; in the assay on HCT-116 colon, 5 µM; in the assay with A498 renal it was 4.84 µM. For the same compound, the values for the TGI in the assay on M14 melanoma and with SF-268 CNS were 7.42 µM and 24.9 µM, respectively.

On to `COC(=O)C1=CS/C(=C2\S[C@@H]3[C@H](S2)[C@H]2C=C[C@@H]3C2)S1`, for which the TGI in the assay with SK-MEL-28 melanoma, in the assay on TK-10 renal, with OVCAR-3 ovarian, in the assay with UACC-62 melanoma, in the assay with HCT-116 colon and in the assay with A498 renal was above 100 µM in each case. Moreover, the TGI in the assay with M14 melanoma and in the assay on SF-268 CNS was above 100 µM throughout.

In the case of `CC(C)OC(=O)/C=C/C(=O)O/C=C/[N+](=O)[O-]`, the TGI with SK-MEL-28 melanoma is above 100 µM; with TK-10 renal, above 100 µM; with OVCAR-3 ovarian, above 100 µM; in the assay on UACC-62 melanoma, 84.7 µM; in the assay on HCT-116 colon it was 54.3 µM; in the assay with A498 renal, 40.4 µM. The values for the TGI with M14 melanoma and with SF-268 CNS were above 100 µM and 68.7 µM, respectively.

Turning to `N#Cc1[nH]c(=O)n(-c2ccccc2)c1N`, the TGI in the assay on SK-MEL-28 melanoma, with TK-10 renal, in the assay with OVCAR-3 ovarian, in the assay with UACC-62 melanoma, in the assay with HCT-116 colon and in the assay on A498 renal was above 10 µM each time. Moreover, the TGI with M14 melanoma and with SF-268 CNS was above 10 µM each time.

In the case of `CC(=O)O[C@H]1C(=O)[C@@]2(C)[C@H]([C@H](OC(=O)c3ccoc3)[C@]3(O)C[C@H](OC(=O)[C@H](O)[C@@H](NC(=O)c4ccccc4)c4ccccc4)C(C)=C1C3(C)C)[C@]1(OC(C)=O)CO[C@@H]1C[C@@H]2O`, the TGI in the assay with SK-MEL-28 melanoma is above 12.5 µM; with TK-10 renal it was above 12.5 µM; in the assay with OVCAR-3 ovarian, 0.752 µM; with UACC-62 melanoma it was above 12.5 µM; in the assay on HCT-116 colon, 0.366 µM; with A498 renal it was above 12.5 µM. In addition, the TGI in the assay with M14 melanoma and with SF-268 CNS was above 12.5 µM each time.

In the case of `CC(CC[C@@]1(C)C(=O)CCC2O[C@]21C)[C@H]1C[C@@H](c2ccoc2)OC1=O` (stereo partly drawn), the TGI in the assay with SK-MEL-28 melanoma is 70.8 µM; in the assay with TK-10 renal it was 94.4 µM; in the assay with OVCAR-3 ovarian, 66.1 µM; in the assay with UACC-62 melanoma, above 100 µM; in the assay on HCT-116 colon it was 38.4 µM; in the assay on A498 renal, above 100 µM. For the same compound, the TGI in the assay with M14 melanoma was above 100 µM; with SF-268 CNS, 94.6 µM.

As to `Cc1ccc(S(=O)(=O)N/N=C2/CCCOC2)cc1`, the TGI with SK-MEL-28 melanoma, in the assay with TK-10 renal, with OVCAR-3 ovarian, with UACC-62 melanoma, in the assay on HCT-116 colon and in the assay on A498 renal was above 100 µM in each case. Moreover, the TGI in the assay with M14 melanoma and in the assay on SF-268 CNS was above 100 µM in each case.

As to `O=C(NCP(=O)(c1ccccc1)c1ccccc1)OCc1ccccc1`, the TGI in the assay with SK-MEL-28 melanoma, with TK-10 renal, with OVCAR-3 ovarian, in the assay on UACC-62 melanoma, with HCT-116 colon and with A498 renal was above 100 µM throughout. The TGI in the assay on M14 melanoma and with SF-268 CNS was above 100 µM in each case.

On to `O=C(c1ccco1)N(C(=S)OCCOc1ccccc1)c1ccccc1`, for which the TGI in the assay on SK-MEL-28 melanoma worked out at 40.3 µM; with TK-10 renal, 55.2 µM; in the assay with OVCAR-3 ovarian, 32.2 µM; in the assay with UACC-62 melanoma it was 32.7 µM; in the assay on HCT-116 colon, 32.5 µM; in the assay on A498 renal it was 33.1 µM. Also, the figures for the TGI in the assay with M14 melanoma and in the assay on SF-268 CNS were 37.3 µM and 35.3 µM, respectively.

Regarding `COC(=O)c1cc2c(cc1CC(Cc1ccc3c(c1)CCCC3)C(=O)OC)CCCC2` (stereo not drawn), the TGI in the assay with SK-MEL-28 melanoma, in the assay on TK-10 renal, in the assay on OVCAR-3 ovarian, in the assay with UACC-62 melanoma, in the assay with HCT-116 colon and with A498 renal was above 100 µM in each case. Besides, the TGI in the assay with M14 melanoma and in the assay on SF-268 CNS was above 100 µM throughout.

In the case of `CCN1CCN(c2nc3ccccc3c3c2CCOc2ccccc2-3)CC1`, the TGI in the assay on SK-MEL-28 melanoma was 32.4 µM; in the assay with TK-10 renal, above 56.9 µM; in the assay on OVCAR-3 ovarian it was above 100 µM; in the assay with UACC-62 melanoma, 34.7 µM; with HCT-116 colon, above 59 µM; in the assay on A498 renal, above 57.4 µM. Besides, the figures for the TGI in the assay on M14 melanoma and in the assay on SF-268 CNS were 38.4 µM and above 100 µM, respectively.
